Entries after “also recorded” stand apart in the source; their conditions may differ. Marks after values point to notes of the source that are not given here. Numbered stars: 1 amine (or outer) side, 2 acyl side, 3 side chain; on linkers, the order of the positions; unused ones are H or OH. Bridge positions count the residues as written; N and C are the ends. Square brackets hold non-standard residues; d marks the D form. Side chains are listed from the residue outwards. Peptide text beside a SMILES is read from it. * marks the point of attachment. PEG8 = NCCOCCOCCOCCOCCOCCOCCOCCOCCC(=O)O; Palmitoyl = CCCCCCCCCCCCCCCC(=O)*; hCys = N[C@@H](CCS)C(=O)O; X1 = O=C(CC[*:2])[*:1]
Experiments:
human V1a receptor = molecular target: T1, human V1a receptor (Homo sapiens, UniProt P37288); experiment: In vitro functional assay at V1aR (cytosolic Ca2+ mobilization, fluorimetric); format: cell-based; settings: agonist activity, result in words
T1 construct: expressed in transfected cells; host or cells: CHO
T1 sequence (P37288 whole entry): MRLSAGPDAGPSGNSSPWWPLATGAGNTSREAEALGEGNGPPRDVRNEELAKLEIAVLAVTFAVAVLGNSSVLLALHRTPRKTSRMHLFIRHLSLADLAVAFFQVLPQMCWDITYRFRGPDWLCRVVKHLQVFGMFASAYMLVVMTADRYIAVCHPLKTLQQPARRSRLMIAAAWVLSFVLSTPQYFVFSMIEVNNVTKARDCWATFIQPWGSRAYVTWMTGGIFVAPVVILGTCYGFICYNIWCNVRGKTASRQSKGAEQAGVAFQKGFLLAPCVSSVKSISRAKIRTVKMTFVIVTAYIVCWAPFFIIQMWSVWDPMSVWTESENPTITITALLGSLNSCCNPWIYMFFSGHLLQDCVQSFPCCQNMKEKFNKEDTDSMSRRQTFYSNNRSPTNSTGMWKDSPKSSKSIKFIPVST
Method: The cells were suspended in DMEM buffer (Invitrogen, Carlsbad, CA, USA) complemented with 0.1% FCS, then distributed in microplates at a density of 4.5 × 10^4 cells/well. The fluorescent probe (Fluo4 Direct, Invitrogen, Carlsbad, CA, USA) mixed with probenicid in HBSS buffer (Invitrogen, Carlsbad, CA, USA) complemented with 20 mM HEPES (Invitrogen; Carlsbad, CA, USA) (pH 7.4) was then added into each well and equilibrated with the cells for 60 min at 37 °C then 15 min at 22 °C. The assay plates were positioned in a microplate reader (CellLux, PerkinElmer, Waltham, MA, USA) followed by the addition of the test compound ASK2131, reference agonist or HBSS buffer (basal control), and the measurements of changes in fluorescence intensity which varies proportionally to the free cytosolic Ca^2+ ion concentration. For stimulated control measurements, AVP at 1 μM was added in separate assay wells. The results were expressed as a percent of the control response to 1 μM AVP. The standard reference agonist was AVP, which was tested in each experiment at several concentrations to generate a concentration-response curve from which its EC50 value was calculated.

[1] = test system: diet-induced obese (DIO) Sprague Dawley rats; experiment: Post-treatment serum levels after the 22-day treatment; format: in vivo, rat
Method: Cardiac puncture was used to collect blood for analysis 2 h post final injection. Commercially available enzyme-linked immunosorbent assays (ELISA) were used for quantitative assessment of leptin (cat. # EZRL-83K; MilliporeSigma, Burlington, MA, USA), insulin (cat. # EZRMI-13K; MilliporeSigma, Burlington, MA, USA), and adiponectin (cat. # EZRAPD-62K MilliporeSigma, Burlington, MA, USA). Serum samples were diluted 1:500 for the adiponectin ELISA using the sample diluent provided with the kit. All ELISAs were completed following the manufacturers recommendations. Levels of glucose, cholesterol (total, HDL, and calculated LDL), triglycerides, ALT, and AST were determined in the serum on a Modular P chemistry analyzer (Roche Diagnostics, Risch-Rotkreuz, Switzerland) by the University of Washington Nutrition and Obesity Research Center’s Analytic Core (Seattle, WA, USA).

in vivo = settings: male, Sprague Dawley, rat, sc
Method: Whole blood samples were immediately centrifuged at 4 °C; separated plasma (~100 uL) was pipetted into micro centrifuge tubes, flash frozen on dry ice, and stored at −80 °C. Quantitative analysis plasma samples were performed by Alturas Analytics (Moscow, ID, USA) via peptide extraction from acidified plasma with acetonitrile followed by LC-MS/MS analysis.

UCP1 = experiment: Gene expression of UCP1 in IWAT and IBAT (qRT-PCR); format: in vivo, rat
Text: IWAT and IBAT were homogenized using a TissueLyser LT (Qiagen, Hilden, Germany). RNA was extracted from the tissue lysates using the RNeasy Lipid Mini Kit (mfg. # 74804; Qiagen, Hilden, Germany) and reverse transcribed using the high-capacity cDNA kit (mfg. # 4368814; Applied Biosystems, Waltham, MA, USA). qRT-PCR was completed on the mRNA samples using the Applied Biosystems StepOnePlus System (Applied Biosystems, Waltham, MA, USA). All samples were normalized to the cycle threshold value of 18S mRNA. The following TaqMan® probes (Applied Biosystems, Waltham, MA, USA) were used in this study: 18S (cat. # Hs99999901_s1), UCP1 (cat. # Rn00562126_m1), and Cox8b (cat. # Rn00562884_m1). Analysis was completed using the delta CT method.

[2] = serum ELISA, after 22 days, mean ± SEM, n = 6 (Oxytocin n = 4)
[3] = serum, 2 h post final injection after 22 days, mean ± SEM, n = 6 (Oxytocin n = 4)

Compound: CCCCCCCCCCCCCCCC(=O)NCCOCCOCCOCCOCCOCCOCCOCCOCCC(=O)NCCCC[C@H](NC(=O)CNC(=O)[C@@H]1CCSCCC(=O)N[C@@H](Cc2ccc(O)cc2)C(=O)N[C@@H]([C@@H](C)CC)C(=O)N[C@@H](CCC(N)=O)C(=O)N[C@@H](CC(N)=O)C(=O)N1)C(=O)NCC(N)=O [ASK2131] (YIQN[hCys]GK([PEG8-Palmitoyl])G-NH2; linker N-5 via X1)
- V1aR activation (human V1a receptor): did not display V1aR activation; also recorded: Neither molecule, ASK1476 or ASK2131, is active
- Calculated LDL ([1]; Calculated LDL = Cholesterol − (HDL + Triglycerides/5), serum after 22 days, mean ± SEM): 15 ± 5 mg/dL
- Cholesterol vs. vehicle treated animals ([1]; after 22 days of treatment, result in words): significantly reduced
- Insulin [1, 2]: 6.7 ± 1.0 ng/mL
- Leptin [1, 2]: 39 ± 9.1 ng/mL
- Adiponectin ([1]; serum ELISA, diluted 1:500, after 22 days, mean ± SEM, n = 6 (Oxytocin n = 4)): 62.4 ± 7.3 ng/mL
- ALT [1, 3]: 26 ± 2 U/L
- AST [1, 3]: 73 ± 8 U/L
- Cholesterol [1, 3]: 67 ± 6 ^b mg/dL
- Glucose [1, 3]: 237 ± 12 mg/dL
- HDL [1, 3]: 21 ± 2 mg/dL
- Triglycerides [1, 3]: 182 ± 30 mg/dL
- half-life (in vivo): 2.3 h
- gene expression (UCP1, Cox8b) in comparison to the vehicle treated group (UCP1; IWAT and IBAT, result in words): none of the examined genes showed a significant response
- UCP1 expression in IBAT, mean rank difference (MRD), ASK2131 relative to OXT treatment (UCP1; interscapular brown adipose tissue, qRT-PCR normalized to 18S, p = 0.011): −12.5
- UCP1 expression in IWAT, mean difference (MD), ASK2131 relative to OXT treatment (UCP1; qRT-PCR normalized to 18S, 95% CI −4.23 to 0.42, p = 0.014): −2.32
